≈ marks a conversion by molar mass, not a printed value. Where “and” joins values, the source holds several entries; their conditions need not be identical. Equal entries are not always repeated. Where two headings read alike, the source gives them in different places.
Assays:
[1] = test system: S. aureus 209P (A.T.C.C. 6538P); experiment: Bioassay, turbidometric; assay type: cell-based
bacterial infections [2] = experiment: In vivo antibacterial activity
[3] = for Behaviour when suspended in water: aqueous suspension
bacterial infections [4] = experiment: In vitro antibacterial potency and spectrum; assay type: cell-based
Water solubility = assay type: physicochemical; details: in water at 23° C.
in vivo = details: dog, po, 30 mg/kg
Description: Three beagle dogs (mean weight of 8.2 ± 0.4 kg.) were administered 200 mesh 7-[D-α-amino-α-(p-hydroxyphenyl)acetamido]-3-(1,2,3-triazol-5-ylthiomethyl)-3-cephem-4-carboxylic acid propylene glycolate (bioassay 820 mcg./mgm.) orally at doses of 30 mg. of activity/kg. in hard gelatin capsules. All doses and concentrations reported herein are in terms of the amphoteric material and were corrected for differences in biopotency.

[5] = Heat stability / loss of bioactivity of the solid on storage at elevated temperatures
[6] = allowance made for inert propylene glycol

CO.N[C@@H](C(=O)NC1C(=O)N2C(C(=O)O)=C(CSc3cnn[nH]3)CS[C@H]12)c1ccc(O)cc1 (stereo partly drawn) [BL-S640 methanolate, 7-[D-α-amino-α-(p-hydroxyphenyl)acetamido]-3-(1,2,3-triazol-5-ylthiomethyl)-3-cephem-4-carboxylic acid Methanolate]
Bio-assay [1]: 850 to 900 µg/mg

N[C@@H](C(=O)NC1C(=O)N2C(C(=O)O)=C(CSc3c[nH]nn3)CSC12)c1ccc(O)cc1 (stereo partly drawn) [BL-S640 mono-methanolate]
Bio-assay [1]: 930-960 units/mg.

C=CC.N[C@@H](C(=O)NC1C(=O)N2C(C(=O)O)=C(CSc3cnn[nH]3)CS[C@H]12)c1ccc(O)cc1.O=C(O)CO (stereo partly drawn) [BL-S640 mono-propylene glycolate, 7-[D-α-amino-α-(p-hydroxyphenyl)acetamido]-3-(1,2,3-triazol-5-ylthiomethyl)-3-cephem-4-carboxylic acid mono-propylene glycolate]
Potency and spectrum in vivo versus the zwitterion product (bacterial infections [2]; [6]): substantially the same potency and spectrum in vivo and in vitro | Behaviour when suspended in water [3]: does not lose biological activity or crystallinity and does not oil, suspend unevenly, clump, settle out or become tacky | Potency and spectrum in vivo and in vitro versus the zwitterion product (bacterial infections [4]; [6]): substantially the same potency and spectrum in vivo and in vitro | Bio-assay [1]: 865 µg/mg | calculated potency ([1]; 15.6% 1,2-propylene glycol, 0.3% water): 865 µg/mg

N[C@@H](C(=O)NC1C(=O)N2C(C(=O)O)=C(CSc3c[nH]nn3)CSC12)c1ccc(O)cc1 (stereo partly drawn) [BL-S640 propylene glycolate, 7-[D-α-amino-α-(p-hydroxyphenyl)acetamido]-3-(1,2,3-triazol-5-ylthiomethyl)-3-cephem-4-carboxylic acid 1,2-propylene glycolate]
In vivo results (bacterial infections [2]; dosed on a potency basis in terms of the zwitterion): substantially the same | Behaviour when suspended in water ([3]; listed as propylene glycolate): does not lose biological activity, lose crystallinity, suspend unevenly, oil, clump, settle out or become tacky | solubility (Water solubility): ~10 mg/mL (≈ 21.6 mM) | concentration at 0.08 h (in vivo): 0.04 µg/mL | concentration at 0.25 h (in vivo): 0.3 ± 0.1 µg/mL | concentration at 0.5 h (in vivo): 5.9 ± 2 µg/mL | concentration at 1.05 h (in vivo): 8.4 µg/mL | concentration at 1.5 h (in vivo): 17.7 ± 2 µg/mL | concentration at 2 h (in vivo): 18.7 ± 0.9 µg/mL | concentration at 3 h (in vivo): 13.7 ± 1.2 µg/mL | concentration at 4 h (in vivo): 8.4 ± 1.3 µg/mL | concentration at 6 h (in vivo): 3.2 ± 0.4 µg/mL | concentration at 8 h (in vivo): 1.6 ± 0.2 µg/mL | half-life (in vivo): ~1.36 h | In vitro potency and spectrum of activity (bacterial infections [4]; in vitro, versus Ser. No. 318,340): exhibits the potency and spectrum of activity reported in the above-referenced application Ser. No. 318,340 in a qualitative sense and usually also quantitatively except when it is possible to observe slightly less activity due to its content of the biologically inert propylene glycol | Loss of bioactivity on storage as a solid ([5]; 56°C., one month, usual stringent test conditions): no more than ten | degraded at 24 h ([5]; solid): < 6% | degraded at 48 h ([5]; solid): < 12% | degraded at 720 h ([5]; solid): < 10% | bioassay ([1]; 200 mesh lot dosed to dogs): 820 mcg./mgm. | assigned potency ([1]; bioassay standard, 16.7% 1,2-propylene glycol, 0.3% water): 820 mcg./mgm. | potency of composite blend ([1]; capsule blend): 834 µg/mg | Bio-assay ([1]; listed as 1,2-propylene glycolate): 800 to 850 µg/mg | Bio-assay ([1]; listed as propylene glycolate): 750 to 790 µg/mg and 800 to 860 µg/mg

N[C@@H](C(=O)NC1C(=O)N2C(C(=O)O)=C(CSc3cnn[nH]3)CS[C@H]12)c1ccc(O)cc1 (stereo partly drawn) [BL-S640, 7-[D-α-amino-α-(p-hydroxyphenyl)acetamido]-3-(1,2,3-triazol-5-ylthiomethyl)-3-cephem-4-carboxylic acid]
Degradation in water at alkaline pH ([3]; pH 7): degrades very rapidly, as by loss of the thiol moiety

N[C@@H](C(=O)NC1C(=O)N2C(C(=O)O)=C(CSc3c[nH]nn3)CSC12)c1ccc(O)cc1 (stereo partly drawn) [ethanolate]
Behaviour when suspended in water [3]: gradually lost its ethanol to change into a solid tacky form which lost crystallinity, did not suspend evenly and gummed in time
